EC50 data for 18 molecules are collected here from patent US20250333424A1, “ANTIVIRAL COMPOUNDS” (Gilead Sciences, Inc., priority 2024, published 2025).

This test concerns monocytic THP1 cells infected with HIV VSV-G pseudotyped GFP-NEF reporter virus. As to the kind of experiment: cells. It counts as cell-based. The conditions noted are these: Human immunodeficiency virus 1, THP-1, 24 h.

By EC50 is commonly meant the concentration that produces a half-maximal response. With `Cc1cc(/C=C/C#N)cc(C)c1Oc1nc(NC23CC(C#N)(C2)C3)nc2nn(-c3ccn(C)n3)cc12` [Example 231, (E)-3-((4-(4-(2-cyanovinyl)-2,6-dimethylphenoxy)-2-(1-methyl-1H-pyrazol-3-yl)-2H-pyrazolo[3,4-d]pyrimidin-6-yl)amino)bicyclo[1.1.1]pentane-1-carbonitrile], a half-maximal response (EC50) required 31.1 nM. In the case of `Cc1cc(/C=C/C#N)cc(C)c1Oc1nc(NC23CC(C#N)(C2)C3)nc2nn(-c3cnn(C)c3)cc12` [Example 232, (E)-3-((4-(4-(2-cyanovinyl)-2,6-dimethylphenoxy)-2-(1-methyl-1H-pyrazol-4-yl)-2H-pyrazolo[3,4-d]pyrimidin-6-yl)amino)bicyclo[1.1.1]pentane-1-carbonitrile], the EC50 worked out at 110 nM.

In turn, `Cc1cc(/C=C/C#N)cc(C)c1Oc1nc(NC23CC(C#N)(C2)C3)nc2nn(C3CCOC3)cc12` [Example 233, (R,E)-3-((4-(4-(2-cyanovinyl)-2,6-dimethylphenoxy)-2-(tetrahydrofuran-3-yl)-2H-pyrazolo[3,4-d]pyrimidin-6-yl)amino)bicyclo[1.1.1]pentane-1-carbonitrile] gave an EC50 of 158 nM.

In the case of `Cc1cc(/C=C/C#N)cc(C)c1Oc1nc(NC23CC(C#N)(C2)C3)nc2nn(CC(F)F)cc12` [Example 234, (E)-3-((4-(4-(2-cyanovinyl)-2,6-dimethylphenoxy)-2-(2,2-difluoroethyl)-2H-pyrazolo[3,4-d]pyrimidin-6-yl)amino)bicyclo[1.1.1]pentane-1-carbonitrile], the response was half-maximal at 332 nM (EC50). For the molecule `Cc1cc(/C=C/C#N)cc(C)c1Nc1nc(NC23CC(C#N)(C2)C3)nc2[nH]nc(C)c12` [Example 236, 3-[[4-[4-[(E)-2-cyanovinyl]-2,6-dimethyl-anilino]-3-methyl-11H-pyrazolo[3,4-d]pyrimidin-6-yl]amino]bicyclo[1.1.1]pentane-1-carbonitrile], the EC50 was found to be 217 nM. `Cc1cc(/C=C/C#N)cc(C)c1Nc1nc(NC23CC(C#N)(C2)C3)nc2nn(C)cc12` [Example 237, 3-[[4-[4-[(E)-2-cyanovinyl]-2,6-dimethyl-anilino]-2-methyl-pyrazolo[3,4-d]pyrimidin-6-yl]amino]bicyclo[1.1.1]pentane-1-carbonitrile] came in with an EC50 of 119 nM. Regarding `Cc1cc(/C=C/C#N)cc(C)c1Oc1nc(NC23CC(C#N)(C2)C3)nc2c1C(C)(O)N(CC(F)F)C2=O` (stereo not drawn) [Example 238, (E)-3-((4-(4-(2-cyanovinyl)-2,6-dimethylphenoxy)-6-(2,2-difluoroethyl)-5-hydroxy-5-methyl-7-oxo-6,7-dihydro-5H-pyrrolo[3,4-d]pyrimidin-2-yl)amino)bicyclo[1.1.1]pentane-1-carbonitrile], the midpoint of the response, the EC50, lay at 92.4 nM.

In turn, `Cc1cc(/C=C/C#N)cc(C)c1Oc1nc(NC23CC(C#N)(C2)C3)nc2c1[C@@H](C)N(CC(F)F)C2=O` [Example 239, (R,E)-3-((4-(4-(2-cyanovinyl)-2,6-dimethylphenoxy)-6-(2,2-difluoroethyl)-5-methyl-7-oxo-6,7-dihydro-5H-pyrrolo[3,4-d]pyrimidin-2-yl)amino)bicyclo[1.1.1]pentane-1-carbonitrile] had an EC50 of 18.5 nM. The result for `Cc1cc(/C=C/C#N)cc(C)c1Oc1nc(NC23CC(C#N)(C2)C3)nc2c1[C@H](C)N(CC(F)F)C2=O` [Example 240, (S,E)-3-((4-(4-(2-cyanovinyl)-2,6-dimethylphenoxy)-6-(2,2-difluoroethyl)-5-methyl-7-oxo-6,7-dihydro-5H-pyrrolo[3,4-d]pyrimidin-2-yl)amino)bicyclo[1.1.1]pentane-1-carbonitrile] reads 35.2 nM; that for `Cc1cc(/C=C/C#N)cc(C)c1Oc1nc(NC23CC(C#N)(C2)C3)nc2c1C1(C)O[C@@H](C)CCN1C2=O` (stereo partly drawn) [Example 241, 3-(((6S)-4-(4-((E)-2-cyanovinyl)-2,6-dimethylphenoxy)-4b,6-dimethyl-10-oxo-4b,7,8,10-tetrahydro-6H-pyrimido[5′,4′:3,4]pyrrolo[2,1-b][1,3]oxazin-2-yl)amino)bicyclo[1.1.1]pentane-1-carbonitrile], 34.8 nM; that for `Cc1cc(/C=C/C#N)cc(C)c1Oc1nc(NC23CC(C#N)(C2)C3)nc2c1C1(C)SCCCN1C2=O` (stereo not drawn) [Example 246, (E)-3-((4-(4-(2-cyanovinyl)-2,6-dimethylphenoxy)-4b-methyl-10-oxo-4b,7,8,10-tetrahydro-6H-pyrimido[5′,4′:3,4]pyrrolo[2,1-b][1,3]thiazin-2-yl)amino)bicyclo[1.1.1]pentane-1-carbonitrile], 41.2 nM. On to `Cc1cc(/C=C/C#N)cc(C)c1Oc1nc(NC23CC(C#N)(C2)C3)nc2c1[C@H](C(F)(F)F)NC2=O` [Example 247, (R,E)-3-((4-(4-(2-cyanovinyl)-2,6-dimethylphenoxy)-7-oxo-5-(trifluoromethyl)-6,7-dihydro-5H-pyrrolo[3,4-d]pyrimidin-2-yl)amino)bicyclo[1.1.1]pentane-1-carbonitrile], for which the EC50 was 40.2 nM. In the case of `Cc1cc(/C=C/C#N)cc(C)c1Oc1nc(NC23CC(C#N)(C2)C3)nc2ccn(C)c12` [Example 250, 3-[[4-[4-[(E)-2-cyanovinyl]-2,6-dimethyl-phenoxy]-5-methyl-pyrrolo[3,2-d]pyrimidin-2-yl]amino]bicyclo[1.1.1]pentane-1-carbonitrile], the EC50 is 64 nM. `Cc1cc(/C=C/C#N)cc(C)c1Oc1nc(NC23CC(C#N)(C2)C3)nc2c1C1(C)OCC(C(F)(F)F)CN1C2=O` (stereo not drawn) [Example 253, (E)-3-((4-(4-(2-cyanovinyl)-2,6-dimethylphenoxy)-4b-methyl-10-oxo-7-(trifluoromethyl)-4b,7,8,10-tetrahydro-6H-pyrimido[5′,4′:3,4]pyrrolo[2,1-b][1,3]oxazin-2-yl)amino)bicyclo[1.1.1]pentane-1-carbonitrile] had an EC50 of 253 nM. On to `Cc1cc(/C=C/C#N)cc(C)c1Oc1nc(NC23CC(C#N)(C2)C3)nc2c1[C@@H](C(F)(F)F)NC2=O` [Example 254, (S,E)-3-((4-(4-(2-cyanovinyl)-2,6-dimethylphenoxy)-7-oxo-5-(trifluoromethyl)-6,7-dihydro-5H-pyrrolo[3,4-d]pyrimidin-2-yl)amino)bicyclo[1.1.1]pentane-1-carbonitrile], for which it took 71.4 nM to reach a half-maximal effect (EC50). The result for `COC(F)(F)C1NC(=O)c2nc(NC34CC(C#N)(C3)C4)nc(Oc3c(C)cc(/C=C/C#N)cc3C)c21` (stereo not drawn) [Example 255, (E)-3-((4-2-((2-cyanovinyl)-2,6-dimethylphenoxy)-5-(difluoro(methoxy)methyl)-7-oxo-6,7-dihydro-5H-pyrrolo[3,4-d]pyrimidin-2-yl)amino)bicyclo[1.1.1]pentane-1-carbonitrile] reads 52.5 nM; that for `Cc1cc(/C=C/C#N)cc(C)c1Oc1nc(NC23CC(C#N)(C2)C3)nc2nn3c(c12)CCCC3` [Example 256, (E)-3-((4-(4-(2-cyanovinyl)-2,6-dimethylphenoxy)-5,6,7,8-tetrahydropyrido[1′,2′:1,5]pyrazolo[3,4-d]pyrimidin-2-yl)amino)bicyclo[1.1.1]pentane-1-carbonitrile], 36.1 nM; that for `Cc1cc(/C=C/C#N)cc(C)c1Oc1nc(NC23CC(C#N)(C2)C3)nc2nn3c(c12)CCC3` [Example 257, (E)-3-((4-(4-(2-cyanovinyl)-2,6-dimethylphenoxy)-6,7-dihydro-5H-pyrrolo[1′,2′:1,5]pyrazolo[3,4-d]pyrimidin-2-yl)amino)bicyclo[1.1.1]pentane-1-carbonitrile], 22.8 nM.
